Some test systems named below: SN12C; OVCAR-3; SK-OV-3; 786-0; TK-10; NCI-H460; EKVX; U-251; BT-549; HL-60; HCT-15; HCC 2998; NCI/ADR-RES; MDA-N; CCRF-CEM; PC-3; M14; SNB-75; SK-MEL-2; M19-MEL.
What all share (assay): DTP human tumour cell line panel, 48 h

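Protocol summary: plate cells (96-well), add compound at 5 concentrations, incubate 48 h, interpolate endpoints linearly. GI50: concentration for 50% inhibition of growth.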 Activity calls are given as the source filed them. Cut-off read from the data, not from the text of the source: active = GI50 up to about 1.1 µM and inactive = higher.

Regarding `OC1(c2ccc(Cl)cc2)c2c(c3ccccc3c3ccccc23)C2=NCCN21` (stereo unspecified), the GI50 was 16.3 µM (inactive) with SN12C; 23.8 µM (inactive) in the assay with OVCAR-3; 16.4 µM (inactive) with SK-OV-3; 4.02 µM (inactive) in the assay on 786-0; 4.98 µM (inactive) in the assay on TK-10; 15.8 µM (inactive) in the assay with NCI-H460. For the same molecule, the GI50 with EKVX is 13.6 µM (inactive); with U-251, 12.8 µM (inactive); in the assay with BT-549 it was 16.5 µM (inactive); with HL-60, > 100 µM (inactive); in the assay with HCT-15, 24.3 µM; in the assay on HCC 2998, 1.98 µM (inactive). Also, the GI50 is 11.5 µM (inactive) with NCI/ADR-RES; 19.8 µM (inactive) in the assay with MDA-N; > 100 µM (inactive) with CCRF-CEM; 14.6 µM (inactive) in the assay with PC-3; 11.4 µM (inactive) in the assay on M14; 2.91 µM (inactive) in the assay with SNB-75. Moreover, the GI50 in the assay with SK-MEL-2 is 18.7 µM (inactive).
On to `Cn1c2ccccc2n2c3ccccc3c(=O)c(C#N)c12`, for which the GI50 in the assay with SN12C was 17.9 µM (inactive); with OVCAR-3 it was > 100 µM (inactive); in the assay on SK-OV-3, 27.3 µM (inactive); with 786-0 it was 6.01 µM (inactive); in the assay with TK-10, > 55 µM (inactive); with NCI-H460, 3.23 µM (inactive). Further, the GI50 with EKVX was 18.7 µM (inactive); in the assay on U-251, 12 µM (inactive); in the assay with BT-549 it was 43.2 µM (inactive); with HL-60 it was 3.41 µM (inactive); in the assay on HCT-15 it was 6.62 µM; with HCC 2998, 6.56 µM (inactive). For the same molecule, the GI50 is 4.46 µM (inactive) with NCI/ADR-RES; > 48.5 µM (inactive) in the assay with MDA-N; 8.38 µM (inactive) in the assay on CCRF-CEM; 22.8 µM (inactive) with PC-3; > 75.3 µM (inactive) with M14; 15 µM (inactive) in the assay with SNB-75. Also, the GI50 in the assay on SK-MEL-2 was 48.8 µM (inactive).
As to `O=c1c2cc3c(=O)n(CCc4ccccc4CO)c(=O)c3cc2c(=O)n1CCc1ccccc1CO`, the GI50 in the assay on SN12C, in the assay with OVCAR-3, in the assay on SK-OV-3, with TK-10, with NCI-H460 and with U-251 was > 100 µM (inactive) each time. Further, the GI50 with HL-60 was > 100 µM (inactive); in the assay on HCT-15, greater than 100 µM; in the assay with CCRF-CEM, > 100 µM (inactive); in the assay on M19-MEL, > 100 µM (inactive); in the assay on SNB-75 it was > 100 µM (inactive); with SK-MEL-2 it was > 100 µM (inactive).
Turning to `C#CCC1(C(=O)OCC)C(=O)c2ccccc2N(C)C1=O` (stereo unspecified), the GI50 was 67.9 µM (inactive) in the assay on SN12C; > 100 µM (inactive) in the assay with OVCAR-3; > 100 µM (inactive) with SK-OV-3; > 100 µM (inactive) with TK-10; > 100 µM (inactive) in the assay with NCI-H460; > 100 µM (inactive) with EKVX. In addition, the GI50 in the assay on U-251 was > 100 µM (inactive); in the assay on HL-60, 60.1 µM (inactive); in the assay on HCT-15, greater than 100 µM; in the assay on CCRF-CEM, > 100 µM (inactive); in the assay with M19-MEL, > 100 µM (inactive); in the assay on M14, > 100 µM (inactive). For the same molecule, the GI50 with SNB-75 was 16.6 µM (inactive); in the assay on SK-MEL-2, > 100 µM (inactive).
Take `O=C(O)[C@@H](NS(=O)(=O)c1ccc(F)cc1)c1ccccc1`: the GI50 in the assay with SN12C, in the assay on OVCAR-3, with SK-OV-3, in the assay with 786-0, with TK-10 and in the assay on NCI-H460 was > 100 µM (inactive) in each case. Moreover, the GI50 is > 100 µM (inactive) in the assay on EKVX; > 100 µM (inactive) with U-251; greater than 100 µM in the assay on HCT-15; > 100 µM (inactive) in the assay with HCC 2998; > 100 µM (inactive) with CCRF-CEM; > 100 µM (inactive) in the assay on M19-MEL. The GI50 in the assay on M14, in the assay with SNB-75 and in the assay with SK-MEL-2 was > 100 µM (inactive) each time.
In the case of `COC(=O)C(/C(=N/N)C(=O)Nc1cccc(O)c1)c1nc2ccccc2nc1O` (stereo unspecified), the GI50 in the assay on SN12C, in the assay on OVCAR-3, in the assay with SK-OV-3, in the assay with 786-0, in the assay with TK-10 and in the assay with NCI-H460 was > 100 µM (inactive) each time. The GI50 in the assay with EKVX is > 100 µM (inactive); in the assay with U-251 it was > 100 µM (inactive); with BT-549 it was > 100 µM (inactive); with HL-60 it was > 100 µM (inactive); in the assay on HCT-15 it was greater than 100 µM; in the assay on HCC 2998 it was > 100 µM (inactive). Besides, the GI50 with NCI/ADR-RES is > 100 µM (inactive); in the assay on MDA-N, > 100 µM (inactive); with CCRF-CEM, > 10 µM (inactive); with PC-3, > 100 µM (inactive); in the assay with M14, > 100 µM (inactive); with SNB-75, > 100 µM (inactive). Besides, the GI50 in the assay on SK-MEL-2 was > 100 µM (inactive).
With `CCOC(=O)c1c(N2CCCC2)ncn(Cc2ccccc2)c1=S`, the GI50 in the assay with SN12C, in the assay on OVCAR-3, with SK-OV-3, in the assay with 786-0, with TK-10 and in the assay with NCI-H460 was > 100 µM (inactive) throughout. Also, the GI50 in the assay on EKVX is > 100 µM (inactive); in the assay on U-251, > 100 µM (inactive); in the assay with BT-549, > 100 µM (inactive); in the assay with HL-60 it was > 100 µM (inactive); in the assay with HCT-15, greater than 100 µM; in the assay on HCC 2998, > 100 µM (inactive). The GI50 is > 100 µM (inactive) in the assay on NCI/ADR-RES; > 100 µM (inactive) with MDA-N; > 100 µM (inactive) in the assay with CCRF-CEM; 90.4 µM (inactive) with PC-3; > 100 µM (inactive) with M14; 47.6 µM (inactive) in the assay with SNB-75. The GI50 in the assay with SK-MEL-2 is > 100 µM (inactive).
Turning to `Nc1nc(SCc2ccccc2Cl)c2[nH]cnc2n1`, the GI50 in the assay on SN12C is 72.3 µM (inactive); with OVCAR-3, 97.7 µM (inactive); with SK-OV-3, 24.7 µM (inactive); with TK-10 it was 18.8 µM (inactive); in the assay with NCI-H460, 48.9 µM (inactive); in the assay with EKVX, 85.9 µM (inactive). The GI50 is 65.3 µM (inactive) in the assay with U-251; 36.4 µM (inactive) in the assay with HL-60; 51.5 µM with HCT-15; > 100 µM (inactive) in the assay on HCC 2998; 54.5 µM (inactive) in the assay with CCRF-CEM; > 100 µM (inactive) in the assay on M19-MEL. Further, the GI50 with M14 is > 100 µM (inactive); with SK-MEL-2 it was 80.4 µM (inactive).
As to `O=C(c1c(F)c(F)c(F)c(F)c1F)n1c(O)nc2ccccc21`, the GI50 in the assay on SN12C is 14.1 µM (inactive); with OVCAR-3 it was 9.77 µM (inactive); in the assay on SK-OV-3, 15.4 µM (inactive); with 786-0 it was 10.8 µM (inactive); in the assay on TK-10, 5.19 µM (inactive); in the assay with NCI-H460, 12.8 µM (inactive). For the same molecule, the GI50 in the assay with EKVX was 13.9 µM (inactive); in the assay on U-251 it was 12.5 µM (inactive); in the assay with BT-549 it was 18.5 µM (inactive); with HL-60, 2.42 µM (inactive); in the assay with HCT-15, 5.06 µM; with HCC 2998, 3.56 µM (inactive). For the same molecule, the GI50 in the assay on NCI/ADR-RES was 22 µM (inactive); in the assay on MDA-N, 7.33 µM (inactive); in the assay on CCRF-CEM it was 4.53 µM (inactive); in the assay with PC-3, 7.93 µM (inactive); in the assay on M14, 9.33 µM (inactive); in the assay with SNB-75, 16.5 µM (inactive). Besides, the GI50 in the assay with SK-MEL-2 was 4.2 µM (inactive).
On to `C[C@@H]1C[C@H]2CC[C@H](O2)[C@H](C)C(=O)O[C@@H](C)C[C@@H]2CC[C@@H](O2)[C@@H](C)C(=O)O[C@H](C)C[C@H]2CC[C@H](O2)[C@H](C)C(=O)O[C@@H](C)C[C@@H]2CC[C@@H](O2)[C@@H](C)C(=O)O1`, for which the GI50 is 0.366 µM (active) in the assay with SN12C; 0.073 µM (active) with OVCAR-3; 0.2 µM (active) in the assay with SK-OV-3; 0.445 µM (active) with 786-0; 0.425 µM (active) in the assay with TK-10; 0.426 µM (active) with NCI-H460. The GI50 in the assay on EKVX is 0.283 µM (active); in the assay on U-251, 0.366 µM (active); in the assay on BT-549, 0.396 µM (active); in the assay with HL-60, 0.157 µM (active); in the assay on HCT-15, 0.646 µM; in the assay on HCC 2998, 1.1 µM (active). Also, the GI50 was 2.17 µM (inactive) in the assay with NCI/ADR-RES; 0.404 µM (active) in the assay on MDA-N; 0.292 µM (active) in the assay with CCRF-CEM; 0.218 µM (active) in the assay with PC-3; 0.434 µM (active) in the assay with M14; 0.338 µM (active) in the assay with SNB-75. The GI50 with SK-MEL-2 was 0.245 µM (active).
With `CSc1ccc2c(cc1=O)[C@@H](NC(C)=O)CCc1cc(O)c(O)c(O)c1-2`, the GI50 is 20.2 µM (inactive) in the assay on SN12C; 18.6 µM (inactive) with OVCAR-3; > 100 µM (inactive) in the assay on SK-OV-3; 13.8 µM (inactive) with 786-0; 18.8 µM (inactive) with TK-10; 16.4 µM (inactive) in the assay with NCI-H460. For the same molecule, the GI50 was 31.9 µM (inactive) in the assay on EKVX; 16.3 µM (inactive) in the assay on U-251; 29.6 µM (inactive) in the assay on BT-549; 37.8 µM (inactive) with HL-60; 17.5 µM with HCT-15; 23 µM (inactive) with HCC 2998. Moreover, the GI50 is 19.9 µM (inactive) in the assay on NCI/ADR-RES; 11.3 µM (inactive) in the assay with MDA-N; 4.98 µM (inactive) in the assay on CCRF-CEM; 84.3 µM (inactive) with PC-3; 18.7 µM (inactive) in the assay with M14; 14.3 µM (inactive) in the assay on SNB-75. The GI50 with SK-MEL-2 is 32.9 µM (inactive).
As for `COc1ccc(/C=C/c2cc(OC)c(OCc3ccccc3)c(OC)c2)cc1`, the GI50 with SN12C, in the assay on OVCAR-3, in the assay with SK-OV-3, with 786-0, with NCI-H460 and with EKVX was > 100 µM (inactive) throughout. The GI50 was > 100 µM (inactive) in the assay on U-251; > 100 µM (inactive) in the assay on HCC 2998; > 100 µM (inactive) with CCRF-CEM; > 100 µM (inactive) in the assay with M19-MEL; 87.5 µM (inactive) with M14; > 100 µM (inactive) with SNB-75. For the same molecule, the GI50 in the assay on SK-MEL-2 is > 100 µM (inactive).

What is called GI50 is the concentration giving 50% growth inhibition.

The values are drawn from ChEMBL document CHEMBL1201862, “PubChem BioAssay data set” (2004).
